Test results taken from patent publication US5965578A, “Inhibitors of farnesyl-protein transferase” (Merck & Co., Inc., priority 1997, dated 1999).
Where a name gives a salt, the structure may show the parent alone. Read-outs that look alike come from different tables or passages of the source.

Target: T1, human FPTase (Homo sapiens, UniProt P49354+P49356)
T1 construct: made in house
Experiment: In vitro inhibition of ras farnesyl transferase (human FPTase assay)
Format: biochemical
Description: Assays of farnesyl-protein transferase. […] Reactions were initiated with FPTase and stopped with 1 ml of 1.0 M HCL in ethanol. […] Purified compounds were dissolved in 100% dimethyl sulfoxide (DMSO) and were diluted 20-fold into the assay. Percentage inhibition is measured by the amount of incorporation of radioactivity in the presence of the test compound when compared to the amount of incorporation in the absence of the test compound.
Human FPTase activity was assayed as described above with the exception that 0.1% (w/v) polyethylene glycol 20,000, 10 μM ZnCl2 and 100 nM Ras-CVIM were added to the reaction mixture. Reactions were performed for 30 min., stopped with 100 μl of 30% (v/v) trichloroacetic acid (TCA) in ethanol and processed as described above for the bovine enzyme.

IC50 (human FPTase, 100 nM Ras-CVIM, [3H]-FPP, 30 min, read-out: IC50 of inhibitory activity against human FPTase) [µM] | Compound | IC50 [µM]
 | N#Cc1ccc(Cc2cncn2CC2CCN(c3ccccc3)C(=O)C2)cc1 (centres unmarked) [Example 1, 4-[5-(4-Cyanobenzyl)imidazol-1-ylmethyl]-1-phenyl-2-piperidinone hydrochloride] | ≤ 10
≤ 10 | CCOC(=O)C1(Cc2cccc(C)c2)CCN(Cc2cncn2Cc2ccc(C#N)cc2)CC1=O (centres unmarked) [Example 6, Ethyl 1-[3-(4-cyanobenzyl)-3H-imidazol-4-ylmethyl]-3-oxo-4-(3-methylbenzyl)piperidine-4-carboxylate trifluoroacetate salt] | 
